Assay results from patent US10894798B2, “Substituted dihydropyrrolopyrazole derivative” (UBE INDUSTRIES, LTD., priority 2015, dated 2021).

Key:
CDK7 = molecular target: T1, CDK7 (Homo sapiens, UniProt P50613); assay: CDK7 enzyme inhibition test; assay type: biochemical; details: [γ-33P]ATP, MBP substrate, 60 min preincubation at 25°C; Ki=IC50/(1+S/Km); read-out: Ki value of CDK7 inhibitory activity
T1 construct: purchased Carna Biosciences, Inc. 04-108
Procedure, shortened: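 Commercial human CDK7 with myelin basic protein substrate in HEPES pH 7.4 buffer with DTT, Triton X-100, MgCl2; compound preincubated 60 min at 25° C, then reaction run 20 min at 30° C after adding [γ-^33P]ATP (500 μM solution). TCA-precipitated ^33P-MBP counted by scintillation; IC50 converted to Ki via Ki=IC50/(1+S/Km).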

CDK2 = molecular target: T2, CDK2 (Homo sapiens, UniProt P24941); assay: CDK2 enzyme inhibition test; assay type: biochemical; details: [γ-33P]ATP, MBP substrate; Ki=IC50/(1+S/Km); read-out: Ki value of CDK2 inhibitory activity
T2 construct: purchased Invitrogen Corp. PV3267
Protocol: The preparation of a buffer solution was performed by mixing a N-2-hydroxyethylpiperazine-N′-2-ethanesulfonic acid buffer solution (HEPES buffer solution) (pH 7.4), dithiothreitol (DTT), Triton X-100, and magnesium chloride (MgCl2). A 500 μM [γ-^33P]ATP solution was used by diluting a 10 mM ATP solution and a commercially available [γ-^33P]ATP solution (manufactured by Perkin Elmer, Inc., Code No. NEG-302H) with the buffer solution. A CDK2 solution was used by diluting commercially available CDK2 (manufactured by Invitrogen Corp., Catalog No. PV3267) with the buffer solution. A substrate solution was used by diluting myelin basic protein (MBP) with the buffer solution. As for the preparation of a reaction solution, the buffer solution, the 500 μM [γ-^33P]ATP solution, the CDK2 solution, and the substrate solution were mixed at 4° C. to obtain a reaction solution.
(§1) CDK2 enzyme reaction was performed by adding 5 μL of a test compound solution prepared with 10% DMSO/90% injectable distilled water, and 45 μL of the reaction solution in a 1.5 mL microtube at 4° C. and reacting in the microtube at 30° C. for 20 minutes in a water bath incubator. After the reaction, a 10% aqueous trichloroacetic acid (TCA) solution was added to each microtube while cooled to 4° C., and mixed in a vortex mixer to terminate the reaction. The resultant was left standing at 4° C. for 10 minutes and then centrifuged, and the supernatant was discarded. Next, a 2% aqueous trichloroacetic acid (TCA) solution was added thereto, mixed in vortex mixer, and then centrifuged, and the supernatant was discarded. This washing operation was performed twice. After the washing, precipitates were dissolved in a 1 N aqueous sodium hydroxide (NaOH) solution, and the energy quantity (radioactivity) of the reaction product was measured with a liquid scintillation counter.
The calculation of the inhibitory activity of the test compound against CDK2 was performed as a test compound concentration inhibiting 50% of the amount of ^33P bound to MBP (IC50 value) by using EXSUS (version 8.1.0, manufactured by CAC Exicare Corp.).
(§2) The calculation of a Ki value was performed according to the following calculation expression wherein S represents the concentration of ATP contained in the reaction solution, and Km represents a Michaelis-Menten constant: Ki=IC50/(1+S/Km)

PLK1 = molecular target: T3, PLK1 (Homo sapiens, UniProt P53350); assay: PLK1 enzyme (polo-like kinase) inhibition test; assay type: biochemical; details: [γ-33P]ATP, casein substrate; Ki=IC50/(1+S/Km); read-out: Ki value of PLK1 inhibitory activity
T3 construct: purchased Carna Biosciences, Inc. 05-157
Protocol: The preparation of a buffer solution was performed by mixing a 3-morpholinopropanesulfonic acid buffer solution (MOPS buffer solution) (pH 7.0), dithiothreitol (DTT), and magnesium acetate (Mg(CH3COO)2). A 1 mM [γ-^33P]ATP solution was used by diluting a 10 mM ATP solution and a commercially available [γ-^33P]ATP solution (manufactured by Perkin Elmer, Inc., Code No. NEG-302H) with the buffer solution. A PLK1 solution was used by diluting commercially available PLK1 (manufactured by Carna Biosciences, Inc., Catalog No. 05-157) with the buffer solution. A substrate solution was used by diluting casein with the buffer solution. As for the preparation of a reaction solution, the buffer solution, the 500 μM [γ-^33P]ATP solution, the PLK1 solution, and the substrate solution were mixed at 4° C. to obtain a reaction solution.
as §1, with “PLK1 enzyme reaction” for “CDK2 enzyme reaction”, “mixed in a vortex mixer,” for “mixed in vortex mixer,”
The calculation of the inhibitory activity of the test compound against PLK1 was performed as a test compound concentration inhibiting 50% of the amount of ^33P bound to casein (IC50 value) by using EXSUS (version 8.1.0, manufactured by CAC Exicare Corp.).
as §2

[1] = system: human large intestine cancer cell line (HCT-116); assay: Human large intestine cancer (HCT-116) cell growth inhibition test; assay type: cell-based; details: HCT-116, 72 h, culture for 3 days, sulforhodamine B, read-out: GI50 value, HCT-116 cell growth inhibition
Procedure, shortened: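 HCT-116 cells were seeded at 0.5 to 2.0×10^3 cells/well in McCoy's 5A with 10% FBS and dosed with compound at 0.1% final DMSO after overnight culture. Growth was measured by sulforhodamine B absorbance after 3 days. GI50 was calculated from the inhibition rate at each concentration.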

T3 sequence (P53350 whole entry): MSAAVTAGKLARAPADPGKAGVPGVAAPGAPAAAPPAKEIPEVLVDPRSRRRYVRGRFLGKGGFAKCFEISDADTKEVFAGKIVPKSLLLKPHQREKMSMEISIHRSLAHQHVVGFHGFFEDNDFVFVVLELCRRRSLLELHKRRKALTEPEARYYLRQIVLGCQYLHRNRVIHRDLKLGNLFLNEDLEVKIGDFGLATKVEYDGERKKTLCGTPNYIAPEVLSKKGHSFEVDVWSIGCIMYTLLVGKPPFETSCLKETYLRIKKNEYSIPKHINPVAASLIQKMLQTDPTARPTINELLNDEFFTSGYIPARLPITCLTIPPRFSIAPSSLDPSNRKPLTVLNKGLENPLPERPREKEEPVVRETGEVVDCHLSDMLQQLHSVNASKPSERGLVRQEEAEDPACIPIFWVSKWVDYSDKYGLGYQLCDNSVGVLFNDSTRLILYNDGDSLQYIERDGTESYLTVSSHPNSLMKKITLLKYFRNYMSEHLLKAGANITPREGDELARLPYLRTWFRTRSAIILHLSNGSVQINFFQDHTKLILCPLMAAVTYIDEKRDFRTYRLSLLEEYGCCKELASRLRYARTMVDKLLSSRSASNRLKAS
T1 sequence (P50613 whole entry): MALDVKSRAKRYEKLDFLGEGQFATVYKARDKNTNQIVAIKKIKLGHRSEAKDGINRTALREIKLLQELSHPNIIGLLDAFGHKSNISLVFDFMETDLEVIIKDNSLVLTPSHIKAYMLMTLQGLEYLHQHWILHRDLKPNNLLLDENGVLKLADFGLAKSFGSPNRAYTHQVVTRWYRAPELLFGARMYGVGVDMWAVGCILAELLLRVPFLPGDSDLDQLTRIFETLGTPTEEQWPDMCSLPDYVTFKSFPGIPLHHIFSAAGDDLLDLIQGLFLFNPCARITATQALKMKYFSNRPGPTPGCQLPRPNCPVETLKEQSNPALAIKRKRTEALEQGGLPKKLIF
T1 sequence (P51946 whole entry partner): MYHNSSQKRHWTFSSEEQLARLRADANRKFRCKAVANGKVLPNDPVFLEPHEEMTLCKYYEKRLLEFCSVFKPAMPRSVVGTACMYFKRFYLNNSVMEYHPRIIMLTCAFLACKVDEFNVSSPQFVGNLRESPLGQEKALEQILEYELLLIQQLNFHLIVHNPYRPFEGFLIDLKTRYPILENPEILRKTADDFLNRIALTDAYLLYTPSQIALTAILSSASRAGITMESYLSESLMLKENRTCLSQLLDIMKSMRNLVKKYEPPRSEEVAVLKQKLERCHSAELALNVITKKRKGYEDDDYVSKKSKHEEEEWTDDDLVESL
T1 sequence (P51948 whole entry partner): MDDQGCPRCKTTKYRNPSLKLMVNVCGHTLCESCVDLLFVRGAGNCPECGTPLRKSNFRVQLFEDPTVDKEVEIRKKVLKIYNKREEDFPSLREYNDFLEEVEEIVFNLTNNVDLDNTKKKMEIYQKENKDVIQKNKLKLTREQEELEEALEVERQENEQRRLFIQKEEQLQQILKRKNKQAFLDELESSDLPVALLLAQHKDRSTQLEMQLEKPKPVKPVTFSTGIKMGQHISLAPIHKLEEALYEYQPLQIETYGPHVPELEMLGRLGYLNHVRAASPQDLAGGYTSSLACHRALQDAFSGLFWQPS

| SMILES | Ki (CDK7) [µM] | Ki (CDK2) [µM] | Ki (PLK1) [µM] | GI50 [1] [µM] |
| --- | --- | --- | --- | --- |
| CC(F)(F)c1ccccc1NC(=O)N1Cc2c(NC(=O)C3([Si](C)(C)C)CCC3)n[nH]c2C1(C)C [IV-45, N-[2-(1,1-Difluoroethyl)phenyl]-6,6-dimethyl-3-[1-(trimethylsilyl)cyclobutanecarboxamido]-4,6-dihydropyrrolo[3,4-c]pyrazole-5(1H)-carboxamide] | ≤ 0.05 | ≥ 1 | ≥ 5 | ≤ 0.1 |
| CC1(C)c2[nH]nc(NC(=O)C3([Si](C)(C)C)CCC3)c2CN1C(=O)Nc1ccccc1OC(F)F [IV-87, N-[2-(Difluoromethoxy)phenyl]-6,6-dimethyl-3-[1-(trimethylsilyl)cyclobutanecarboxamido]-4,6-dihydropyrrolo[3,4-c]pyrazole-5(1H)-carboxamide] | ≤ 0.05 | ≥ 1 | ≥ 5 | ≤ 0.1 |
| CC1(C)c2[nH]nc(NC(=O)C3([Si](C)(C)C)CCC3)c2CN1C(=O)Nc1c(F)cccc1C#N [IV-185, N-(2-Cyano-6-fluorophenyl)-6,6-dimethyl-3-[1-(trimethylsilyl)cyclobutanecarboxamido]-4,6-dihydropyrrolo[3,4-c]pyrazole-5 (1H)-carboxamide] | ≤ 0.05 | ≥ 1 | ≥ 5 | ≤ 0.1 |
| CC1(C)c2[nH]nc(NC(=O)C3([Si](C)(C)C)CCC3)c2CN1C(=O)Nc1c(Cl)cccc1Br [IV-207, N-(2-Bromo-6-chlorophenyl)-6,6-dimethyl-3-[1-(trimethylsilyl)cyclobutanecarboxamido]-4,6-dihydropyrrolo[3,4-c]pyrazole-5 (1H)-carboxamide] | ≤ 0.05 | ≥ 1 | ≥ 5 | ≤ 0.1 |
| CC1(C)c2[nH]nc(NC(=O)C3([Si](C)(C)C)CCC3)c2CN1C(=O)Nc1c(Cl)cccc1C1CC1 [IV-231, N-(2-Chloro-6-cyclopropylphenyl)-6,6-dimethyl-3-[1-(trimethylsilyl)cyclobutanecarboxamido]-4,6-dihydropyrrolo[3,4-c]pyrazole-5(1H)-carboxamide] | ≤ 0.05 | ≥ 1 | ≥ 5 | ≤ 0.1 |
| CC1(C)c2[nH]nc(NC(=O)C3([Si](C)(C)C)CCC3)c2CN1C(=O)Nc1c(Cl)cccc1C(F)(F)F [IV-239, N-[2-Chloro-6-(trifluoromethyl)phenyl]-6,6-dimethyl-3-[1-(trimethylsilyl)cyclobutanecarboxamido]-4,6-dihydropyrrolo[3,4-c]pyrazole-5(1H)-carboxamide] | ≤ 0.05 | ≥ 1 | ≥ 5 | ≤ 0.1 |
| Cc1ccc(Cl)cc1NC(=O)N1Cc2c(NC(=O)C3([Si](C)(C)C)CCC3)n[nH]c2C1(C)C [IV-367, N-(5-Chloro-2-methylphenyl)-6,6-dimethyl-3-[1-(trimethylsilyl)cyclobutanecarboxamido]-4,6-dihydropyrrolo[3,4-c]pyrazole-5 (1H)-carboxamide] | ≤ 0.05 | ≥ 1 | ≥ 5 | ≤ 0.1 |
| Cc1ccc(NC(=O)N2Cc3c(NC(=O)C4([Si](C)(C)C)CCC4)n[nH]c3C2(C)C)c(C)c1 [IV-377, N-(2,4-Dimethylphenyl)-6,6-dimethyl-3-[1-(trimethylsilyl)cyclobutanecarboxamido]-4,6-dihydropyrrolo[3,4-c]pyrazole-5(1H)-carboxamide] | ≤ 0.05 | ≥ 1 | ≥ 5 | ≤ 0.1 |
| Cc1cccc(C)c1NC(=O)N1Cc2c(NC(=O)C3([Si](C)(C)C)CCC3)n[nH]c2C1(C)C [IV-381, N-(2,6-Dimethylphenyl)-6,6-dimethyl-3-[1-(trimethylsilyl)cyclobutanecarboxamido]-4,6-dihydropyrrolo[3,4-c]pyrazole-5(1H)-carboxamide] | ≤ 0.05 | ≥ 1 | ≥ 5 | ≤ 0.1 |

Other lines, results leading:

| Ki (CDK7) [µM] | Ki (CDK2) [µM] | Ki (PLK1) [µM] | GI50 [1] [µM] | SMILES |
| --- | --- | --- | --- | --- |
| ≤ 0.05 | ≥ 1 | ≥ 5 | ≤ 0.1 | CC1(C)c2[nH]nc(NC(=O)C3([Si](C)(C)C)CCC3)c2CN1C(=O)Nc1c(F)cccc1F [IV-105, N-(2,6-Difluorophenyl)-6,6-dimethyl-3-[1-(trimethylsilyl)cyclobutanecarboxamido]-4,6-dihydropyrrolo[3,4-c]pyrazole-5(1H)-carboxamide] |
| ≤ 0.05 | ≥ 1 | ≥ 5 | ≤ 0.1 | [2H]C([2H])([2H])Oc1cccc(F)c1NC(=O)N1Cc2c(NC(=O)C3([Si](C)(C)C)CCC3)n[nH]c2C1(C)C [IV-177, N-[2-Fluoro-6-(methoxy-d3)phenyl]-6,6-dimethyl-3-[1-(trimethylsilyl)cyclobutanecarboxamido]-4,6-dihydropyrrolo[3,4-c]pyrazole-5(1H)-carboxamide] |
| ≤ 0.05 | ≥ 1 | ≥ 5 | ≤ 0.1 | Cc1c(F)cccc1NC(=O)N1Cc2c(NC(=O)C3([Si](C)(C)C)CCC3)n[nH]c2C1(C)C [IV-357, N-(3-Fluoro-2-methylphenyl)-6,6-dimethyl-3-[1-(trimethylsilyl)cyclobutanecarboxamido]-4,6-dihydropyrrolo[3,4-c]pyrazole-5 (1H)-carboxamide] |
| ≤ 0.05 | ≥ 1 | ≥ 5 | ≤ 0.1 | Cc1ccc(F)c(NC(=O)N2Cc3c(NC(=O)C4([Si](C)(C)C)CCC4)n[nH]c3C2(C)C)c1F [IV-609, N-(2,6-Difluoro-3-methylphenyl)-6,6-dimethyl-3-[1-(trimethylsilyl)cyclobutanecarboxamido]-4,6-dihydropyrrolo[3,4-c]pyrazole-5(1H)-carboxamide] |
| ≤ 0.05 | ≥ 1 | ≥ 5 | ≤ 0.1 | COc1cc(F)c(NC(=O)N2Cc3c(NC(=O)C4([Si](C)(C)C)CCC4)n[nH]c3C2(C)C)c(F)c1 [IV-615, N-(2,6-Difluoro-4-methoxyphenyl)-6,6-dimethyl-3-[1-(trimethylsilyl)cyclobutanecarboxamido]-4,6-dihydropyrrolo[3,4-c]pyrazole-5(1H)-carboxamide] |
